Target: T1, NcFADS (Neurospora crassa, UniProt Q7SCU7)
T1 sequence (Q7SCU7 49-318): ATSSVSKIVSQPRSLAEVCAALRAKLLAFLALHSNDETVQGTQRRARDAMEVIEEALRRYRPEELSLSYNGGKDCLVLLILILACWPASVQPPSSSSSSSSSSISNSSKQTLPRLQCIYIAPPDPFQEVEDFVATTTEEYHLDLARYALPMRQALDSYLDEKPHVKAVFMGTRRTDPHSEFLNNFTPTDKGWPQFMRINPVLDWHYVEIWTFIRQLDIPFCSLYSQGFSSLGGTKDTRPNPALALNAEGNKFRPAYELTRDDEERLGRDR
Assay: isothermal titration calorimetry
Format: binding

Compound	Kd [µM]
Cc1cc2nc3c(=O)[nH]c(=O)nc-3n(C[C@H](O)[C@H](O)[C@H](O)COP(=O)(O)O)c2cc1C [FMN]	20.8
Nc1ncnc2c1ncn2[C@@H]1O[C@H](COP(=O)(O)OP(=O)(O)OP(=O)(O)O)[C@@H](O)[C@H]1O [MgATP^2−]	16.6
